Measurements from patent US11773132B2, “Cyclic di-nucleotides as stimulator of interferon genes modulators” (Beijing Xuanyi PharmaSciences Co., Ltd., priority 2017, dated 2023).

Target: T1, Human STING (Homo sapiens, UniProt Q86WV6, G230A/H232R/R293Q/R71H)
T1 construct: host or cells: THP1-Dual cells (human monocytic reporter line)
Assay: THP1-Dual cell assay, IRF pathway reporter luminescence readout (QUANTI-Luc)
Type: cell-based
Settings: THP1-Dual cells, 24 h, 30 μM, Table 2
Protocol: STING pathway activation by the compounds described herein was measured using THP-1 dual cells. These cells are THP1 monocytes that have been modified to be reporters for the IRF pathway, which is activated by STING agonists in these cells.
THP1-Dual cells (obtained from Invivogen) are maintained in growth medium with 100 ug/ml of Zeocin and 10 ug/ml of blasticidin at 37° C., 5% CO2, the cells were passaged every 3 days by inoculating 7×10^5 cells per ml and centrifuged at 1000 rpm for 5 min. Supernatant was removed and THP-1 Dual cells were re-suspended at 5×10^5 cells/ml in fresh pre-warmed growth medium.
[…]. 50 ul of Cell suspension (about 2.5×10^4 cells per well) was added in 384-well plate, which was incubated for 24 hours at 37° C., 5% CO2. QUANTI-Luc was prepared and used following the manufacturer's instructions, 5×10^3 cells per well were seeded in 40 μl medium and incubated overnight. Luminometer was set with the following parameters: 50u of injection, end-point measurement with a 4 second start time and 0.1 second reading time. 10 ul of THP-1 Dual cell culture medium per well was added into a 96-well white (opaque) plate, luminescence was measured and calculated.

T1 sequence (Q86WV6 whole entry R71H/G230A/H232R/R293Q): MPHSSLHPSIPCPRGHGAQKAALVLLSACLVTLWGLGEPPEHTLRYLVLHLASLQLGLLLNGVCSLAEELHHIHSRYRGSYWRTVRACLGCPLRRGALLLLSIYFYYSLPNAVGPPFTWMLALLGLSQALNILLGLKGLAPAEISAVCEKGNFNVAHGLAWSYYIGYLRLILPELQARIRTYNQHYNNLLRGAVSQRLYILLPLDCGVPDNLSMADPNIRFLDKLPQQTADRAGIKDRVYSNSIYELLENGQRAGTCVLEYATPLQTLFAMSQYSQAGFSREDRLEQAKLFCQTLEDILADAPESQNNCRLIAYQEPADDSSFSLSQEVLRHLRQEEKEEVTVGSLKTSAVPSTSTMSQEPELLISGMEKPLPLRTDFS

Structure (SMILES): BP1(=O)OC[C@H]2O[C@@H](n3cnc4c(NCc5ccccc5)ncnc43)[C@H](OP(=O)(S)OC[C@H]3O[C@@H](n4cnc5c(NCc6ccccc6)ncnc54)[C@H](O)[C@@H]3O1)[C@@H]2O (single isomer, unassigned) [Compound D3]
- Readout Average: 273875
- Readout n = 1: 289010
- Readout n = 2: 258740

Structure (SMILES): BP1(=O)OC[C@H]2O[C@@H](n3cnc4c(NCc5ccccc5)ncnc43)[C@H](OP(=O)(S)OC[C@H]3O[C@@H](n4cnc5c(NCc6ccccc6)ncnc54)[C@H](O)[C@@H]3O1)[C@@H]2O (single isomer, unassigned) [Compound D4]
- Readout Average: 510240
- Readout n = 1: 534040
- Readout n = 2: 486440
